In US11505556B2, “Halogenated derivatives of morphinans and uses thereof” (Xalud Therapeutics, Inc., priority 2017, dated 2022):

Legend:
[1] = test system: CCI neuropathic pain (mechanical allodynia); test: Rat CCI model, oral and subcutaneous phases (Study R042); assay type: in vivo
Description: Rat chronic constriction injury model-Oral and subcutaneous (+)-NTX and XT-203: An efficacy study was conducted in the rat chronic constriction injury (CCI) model (Study R042). The study design comprised two phases. A five-day period of oral (PO) dosing and behavioral testing was followed by a five-day period of subcutaneous (SC) dosing, with a two-day washout period between these periods. Dosing on each day was performed three times a day (TID). Behavioral testing for mechanical allodynia was performed on the first and fifth days of dosing, at three times on those days: before the first dose of the day, 30 minutes after the first dose of the day, and 30 minutes after the second dose of the day. Thus, day 5 testing is designated as pre5.1 (before the first dose of the day), 5.1 (fifth day, after first dose) or 5.2 (fifth day, after second dose). On day 5 of the subcutaneous dosing phase, a second testing period was introduced 60 minutes after the second dose. (+)-NTX (6, 18, and 60 mg/kg) and XT-203. Mechanical allodynia was tested manually, using the Chaplan up-down testing method. The results are shown in FIGS. 10A and 10B, with the oral (PO) phase presented as the first pair of graphs. After the two-day washout, the subcutaneous (SC) phase was carried out with the results shown in the graphs at FIGS. 10C and 10D.
The CCI model was well established in this study, with allodynic response thresholds between 2 and 3 grams (presurgical baseline thresholds at 15 g, not shown). […] This is especially remarkable given the extremely rapid metabolism and pharmacokinetics of (+)-NTX (see FIG. 9). Here, the dampening of efficacy due to lack of significant amounts of parent compound is particularly evident. Thus, the appropriate dose-ranging conditions in animal models should reflect (+)-NTX serum levels during efficacy testing, to match pharmacokinetics with pharmacodynamics. […] Efficacy is only observed after the first dose on day 5. Thus, changes designed to improve compound stability do provide improved efficacy.

[2] = test system: surgical pain (paw incision), paw withdrawal threshold; test: Mouse paw incision model, morphine potentiation
Description: Manual testing with von Frey hairs was performed at the times indicated in the graphs. The animals were placed in individual Perspex boxes on a raised metal mesh for at least 40 min before the test. A series of graduated von Frey hairs (0.07, 0.16, 0.4, 0.6, and 1.0 g) were applied to the plantar surface of the left paw, in sequence. Each von Frey hair was applied 10 times on a one-sec-on-one-sec-off protocol, with each hair slightly bent. A paw withdrawal upon this hind-paw stimulation for a given von Frey hair registering 5 responses out of 10 trials was recorded the paw withdrawal threshold (PWT). A baseline PWT was determined each day for 3 days before surgery. […] In addition, the PWT was determined before dosing and 1, 2, and 4 hours after dosing.
In both cases, morphine was dosed at 1 mg/kg IP.
Each group had n=10 mice.

[3] = test system: CCI neuropathic pain (mechanical allodynia); test: Rat chronic constriction injury (CCI) neuropathic pain model, SC dosing, von Frey testing (Example 1); assay type: in vivo
Description: Pathogen-free adult male Sprague-Dawley rats (300-375 g; Harlan Labs, Madison, Wis.) were used in all experiments. Rats were housed in temperature (23+/−3° C.) and light (12 hour:12 hour, light:dark cycle; lights on at 0700) controlled rooms with standard rodent chow and water available ad libitum.
Chronic Constriction Injury (CCI) model: Neuropathic pain was induced using the CCI model of partial sciatic nerve injury (see, e.g., Bennett and Xie, […]). CCI was performed at the mid-thigh level of the left hindleg as previously described in Milligan, et al., Eur. J. Neuroscience, 20:2294-2302 (2004). In brief, four sterile chromic gut sutures (cuticular 4-0 chromic gut, FS-2; Ethicon, Somerville, N.J., USA) were loosely tied around the gently isolated sciatic nerve. Drug testing was delayed until 10-14 days after surgery to ensure that neuropathic pain was well established prior to the initiation of drug delivery.
XT-203 CCI SC: Rats (10/group) were subjected to CCI neuropathic pain model surgery. After the pain state was established, they were dosed 3× per day for 5 days with XT-203 or a positive control (gabapentin) dose. Behavior testing for pain responses by von Frey testing was used to establish pain thresholds in the affected hind paw. Because dosage was 3×/day, behavior testing was performed after the first and second dose of day 1 dosing (1.1, 1.2) and after the first and second dose of day 5 dosing (5.1, 5.2). […]
Von Frey Test for Mechanical Allodynia: Rats received at least three 60 min habituations to the test environment prior to behavioral testing. Response thresholds to calibrated light pressure stimuli applied to the plantar surface of the paws was measured using the von Frey test. […] Briefly, rats were first assessed for baseline response thresholds (average of three consecutive withdrawal assessments) from each paw at 15 min intervals, and the average response threshold from both feet was calculated. […] Allodynia was assessed pre- and post-drug delivery.

[4] = in vitro; conditions: dog, cultured hepatocytes
[5] = test system: acute nociceptive pain (paw incision); test: Rat paw incision model, subcutaneous (Study R049); conditions: 30 mg/kg SC TID, five days; morphine 3 mg/kg as positive control
[6] = test system: EAE (multiple sclerosis model) pain; test: Experimental Autoimmune Encephalomyelitis (EAE) model, mechanical allodynia; assay type: in vivo, rat; conditions: both paws
Source text: The Experimental Autoimmune Encephalomyelitis (EAE) Model has been developed as a rat model of multiple sclerosis (Sloane, E. et al. Brain Behav. Immun. 2009, 23, 92-100). The model encompasses the injection of myelin oligodendrocyte glycoprotein (MOG) or similar glycoprotein to establish and antibody reaction that damages spinal nerve fibers leading to a progression of motor and sensory deficits. The rapid progression of deficits can be slowed by reduction of the MOG dose, enabling testing for pain responses prior to the development of hind limb paresis.
Reduced-dose MOG or saline (sham) was administered intradermally at the base of the tail. Mechanical allodynia pain testing was performed on hind left and right paws by application of Semmes-Weinstein (“von Frey”) monofilaments calibrated for different bending forces for 8 seconds to determine the paw-withdrawal threshold. On day 15 post EAE induction, after reduction in the paw-withdrawal threshold (establishment of mechanical allodynia pain), subcutaneous injection of 15 mg/kg XT-203 or saline was administered three times/day for 15 days. Behavioral data were analyzed with two-way ANOVA. For all tests, statistical significance was set to p<0.05 (*).

[7] = in vitro; conditions: human, cultured hepatocytes
[8] = in vitro; conditions: monkey, cultured hepatocytes
[9] = in vitro; conditions: mouse, hepatocytes

Row | SMILES | efficacy on mechanical allodynia, medium and high doses ([1]; (+)-NTX 18 and 60 mg/kg TID, PO d1, SC d1, SC d5 panels) | PWT of the ipsilateral hind-paw, 2 hours post-dosing ([2]; (+)-NTX 18 mg/kg IP alone) [g] | PWT of the ipsilateral hind-paw, 4 hours post-dosing ([2]; (+)-NTX 18 mg/kg IP alone) [g] | PWT of the ipsilateral hind-paw, 1 hour post-dosing ([2]; (+)-NTX 18 mg/kg IP alone, baseline 0.11±0.015 g) [g] | effect on pain threshold (von Frey), data not shown ([3]; SC) | half-life [4] [min] | efficacy in rat paw incision model at the high dose [5] | reversal of allodynia at pre5.1 (before first dose of day 5) ([1]; XT-203 18 mg/kg SC TID) | efficacy on mechanical allodynia, subcutaneous, day 5 ([1]; XT-203 18 mg/kg SC TID, after the first dose on day 5) | pain responses in MOG-treated rats ([6]; 15 mg/kg SC three times/day for 15 days from day 15 post EAE induction) | pain response in sham non-MOG rats ([6]; 15 mg/kg SC three times/day for 15 days) | half-life [7] [min] | half-life [8] [min] | PWT, 2 hours after dosing ([2]; XT-203 10 mg/kg IP alone) [g] | PWT, 4 hours after dosing ([2]; XT-203 10 mg/kg IP alone) [g] | PWT, 1 hour after dosing ([2]; XT-203 10 mg/kg IP alone, 0.11±0.015 g before dosing) [g] | half-life [9] [min] | effect on pain threshold (von Frey), day 1 dosing ([3]; XT-203 19 mg/kg SC 3x per day, FIG. 5A) | effect on pain threshold (von Frey), day 5 testing ([3]; XT-203 19 mg/kg SC 3x per day, FIG. 5B)
1 | O=C1CC[C@]2(O)[C@@H]3Cc4ccc(O)c5c4[C@]2(CCN3CC2CC2)[C@@H]1O5 [(+)-naltrexone, reference compound] | some efficacy | 0.22 ± 0.050 | 0.14 ± 0.32 | 0.31 ± 0.056 | not effective |  |  |  |  |  |  |  |  |  |  |  |  |  | 
2 | COc1ccc2c3c1O[C@@H]1C(F)CCC4[C@H](C2)N(CC2CC2)CC[C@]341 (stereo partly shown) [XT-203] |  |  |  |  |  | 24.3 | significant efficacy | does not show reversal of allodynia | some significant efficacy | did reverse pain responses | no effect | 54.3 | 13.7 | 0.25 ± 0.059 | 0.09 ± 0.012 | 0.32 ± 0.058 | ~27 | minimal effect | substantial effect
